The text below walks through data of PubChem BioAssay AID256 (DTP/NCI, 2004).

In this experiment the test system is CD2F1 mice, L1210 leukemia ip, survival T/C. Kind of experiment: NCI In Vivo Anticancer Drug Screen. Data for tumor model L1210 Leukemia (intraperitoneal) in CD2F1 (CDF1) mice. As to conditions: higher = longer survival. Put shortly: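 Tumor-bearing mice (transplanted tumor) were split into treated and vehicle control groups, and the measured endpoint of each treated group was divided by that of its vehicle controls.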

Where [1] appears, read: endpoint: mean survival time, dose: 100.0 mg/kg/injection, schedule: Q04DX003 (ip), vehicle: saline with Tween-80.
Where [2] appears, read: endpoint: mean survival time, dose: 200.0 mg/kg/injection, schedule: Q04DX003 (ip), vehicle: saline with Tween-80.
The mark [3] stands for this setting: endpoint: mean survival time, dose: 400.0 mg/kg/injection, schedule: Q04DX003 (ip), vehicle: saline with Tween-80.
Where [4] appears, read: endpoint: mean survival time, dose: 100.0 mg/kg/injection, schedule: Q01DX001 (ip), vehicle: saline.
The mark [5] stands for this setting: endpoint: mean survival time, dose: 200.0 mg/kg/injection, schedule: Q01DX001 (ip), vehicle: saline.
Where [6] appears, read: endpoint: mean survival time, dose: 25.0 mg/kg/injection, schedule: Q01DX009 (ip), vehicle: saline with Tween-80.
The mark [7] stands for this setting: endpoint: mean survival time, dose: 50.0 mg/kg/injection, schedule: Q01DX009 (ip), vehicle: saline with Tween-80.
Where [8] appears, read: endpoint: mean survival time, dose: 100.0 mg/kg/injection, schedule: Q01DX009 (ip), vehicle: saline with Tween-80.
Where [9] appears, read: endpoint: mean survival time, dose: 200.0 mg/kg/injection, schedule: Q01DX009 (ip), vehicle: saline with Tween-80.
Where [10] appears, read: endpoint: mean survival time, dose: 400.0 mg/kg/injection, schedule: Q01DX009 (ip), vehicle: saline with Tween-80.
Setting [11] is: endpoint: mean survival time, dose: 100.0 mg/kg/injection, schedule: Q04DX002 (ip), vehicle: saline with Tween-80.
Setting [12] is: endpoint: mean survival time, dose: 200.0 mg/kg/injection, schedule: Q04DX002 (ip), vehicle: saline with Tween-80.
The mark [13] stands for this setting: endpoint: mean survival time, dose: 400.0 mg/kg/injection, schedule: Q04DX002 (ip), vehicle: saline with Tween-80.

Values joined by “and” are separate entries in the source; they are usually repeats but may differ in a detail not shown here. Equal values may be shown once. Toxic doses and inconclusive results are not listed.

Take `COc1cc(C2CC(C)(O)Oc3cc4c(cc32)OCO4)cc(OC)c1OC` (configuration not stated): the T/C was 106 % of control (endpoint: median survival time, dose: 25.0 mg/kg/injection, schedule: Q01DX005 (ip), vehicle: saline with Tween-80); 114 % of control (endpoint: median survival time, dose: 50.0 mg/kg/injection, schedule: Q01DX005 (ip), vehicle: saline with Tween-80); 119 % of control (endpoint: median survival time, dose: 86.0 mg/kg/injection, schedule: Q01DX005 (ip), vehicle: saline with Tween-80); 110 % of control (endpoint: median survival time, dose: 100.0 mg/kg/injection, schedule: Q01DX005 (ip), vehicle: saline with Tween-80); 160 % of control (endpoint: median survival time, dose: 144.0 mg/kg/injection, schedule: Q01DX005 (ip), vehicle: saline with Tween-80); 102 % of control (endpoint: median survival time, dose: 200.0 mg/kg/injection, schedule: Q01DX005 (ip), vehicle: saline with Tween-80). In addition, the T/C (endpoint: median survival time, dose: 240.0 mg/kg/injection, schedule: Q01DX005 (ip), vehicle: saline with Tween-80) is 102 % of control.
With `Clc1ccccc1/C=C1\c2ccccc2-c2nc3ccccc3nc21`, the T/C is 109 % of control under setting [1], 103 % of control under setting [2] and 97 % of control under setting [3].
Take `CCN(CC)CCN=Cc1c(O)c(O)c(C(C)C)c2cc(C)c(-c3c(C)cc4c(C(C)C)c(O)c(O)c(C=NCCN(CC)CC)c4c3O)c(O)c12`: the T/C reads like this: under setting [4], 90 % of control; under setting [5], 90 % of control; (endpoint: mean survival time, dose: 400.0 mg/kg/injection, schedule: Q01DX001 (ip), vehicle: saline) 93 % of control.
Turning to `COc1ccc(-c2c(O)c3ccc(OC)cc3oc2=O)cc1`, the T/C was 96 % of control under setting [6], 108 % of control under setting [7] and 108 % of control under setting [8].
Take `COc1cc(C(C)=O)cc(OCc2ccccc2)c1OC`: the T/C under setting [8] was 100 % of control, the T/C under setting [9] is 102 % of control and the T/C under setting [10] is 96 % of control.
`CC(C(=O)O)C(=O)O.[NH-]CC[NH-].[Pt+2]`: the T/C (endpoint: mean survival time, dose: 60.0 mg/kg/injection, schedule: Q04DX003 (ip), vehicle: water) is 116 % of control.
Take `CC1CCC(NC2=NCCO2)C(C)C1` (configuration not stated): the T/C runs as follows: (endpoint: mean survival time, dose: 12.5 mg/kg/injection, schedule: Q01DX009 (ip), vehicle: saline with Tween-80) 105 % of control; under setting [6], 112 % of control; (endpoint: mean survival time, dose: 25.0 mg/kg/injection, schedule: Q04DX003 (ip), vehicle: saline with Tween-80) 101 % of control; under setting [7], 101 % of control; (endpoint: mean survival time, dose: 50.0 mg/kg/injection, schedule: Q04DX003 (ip), vehicle: saline with Tween-80) 101 % of control.
Turning to `CN1CC(=O)NC1=S`, the T/C under setting [4] was 87 % of control.
Regarding `C[n+]1cccc(/C=C/C(=O)Nc2ccccc2)c1`, the T/C reads like this: under setting [1], 99 % of control; under setting [2], 87 % of control.
In the case of `CN(C)/C=N\c1ncnc2c1ncn2C1OC(CO)C2OC(C)(C)OC21` (configuration not stated), the T/C runs as follows: under setting [11], 109 % of control; under setting [12], 109 % of control; under setting [13], 114 % of control.
As for `COC(=O)c1ncccc1C(=O)O`, the T/C is 94 % of control under setting [1], 86 % of control under setting [2] and 86 % of control under setting [3].
In the case of `O=C(O)c1cccnc1[N+](=O)[O-]`, the T/C is, setting by setting: under setting [7], 98 % of control; (endpoint: mean survival time, dose: 100.0 mg/kg/injection, schedule: Q01DX001 (ip), vehicle: saline with Tween-80) 93 % of control; under setting [8], 94 % of control; (endpoint: mean survival time, dose: 200.0 mg/kg/injection, schedule: Q01DX001 (ip), vehicle: saline with Tween-80) 93 % of control; under setting [9], 96 % of control.
On to `NC(=O)CSc1ccc(Cl)cc1`, for which the T/C reads like this: under setting [8], 113 % of control; under setting [9], 94 % of control; under setting [10], 102 % of control.
`CCCCCCCCCC(=O)N(C)C`: the T/C was 98 % of control (endpoint: mean survival time, dose: 75.0 mg/kg/injection, schedule: Q01DX001 (ip), vehicle: saline) and 104 % of control (endpoint: mean survival time, dose: 150.0 mg/kg/injection, schedule: Q01DX001 (ip), vehicle: saline).
`CN(C)C1CCCC(OC(=O)c2ccccc2)C1` (configuration not stated): the T/C was 97 % of control (endpoint: mean survival time, dose: 25.0 mg/kg/injection, schedule: Q04DX002 (ip), vehicle: saline); 105 % of control (endpoint: mean survival time, dose: 50.0 mg/kg/injection, schedule: Q04DX002 (ip), vehicle: saline); 101 % of control under setting [4]; 94 % of control (endpoint: mean survival time, dose: 100.0 mg/kg/injection, schedule: Q04DX002 (ip), vehicle: saline); 100 % of control under setting [5].
As to `C/C=C(\C)c1cc(=O)c2c(C)cc3c(c2o1)C(=O)c1c(O)c(C2CC(C)(N(C)C)C(O)C(C)O2)cc(C2CC(N(C)C)C(O)C(C)O2)c1C3=O` (configuration not stated), the T/C was 102 % of control (endpoint: mean survival time, dose: 0.38 mg/kg/injection, schedule: Q01DX009 (ip), vehicle: saline); 115 % of control (endpoint: mean survival time, dose: 0.62 mg/kg/injection, schedule: Q01DX009 (ip), vehicle: saline); 116 % of control (endpoint: mean survival time, dose: 0.63 mg/kg/injection, schedule: Q01DX009 (ip), vehicle: saline); 109 % of control (endpoint: mean survival time, dose: 0.75 mg/kg/injection, schedule: Q01DX009 (ip), vehicle: saline); 113 % of control and 105 % of control (endpoint: mean survival time, dose: 1.25 mg/kg/injection, schedule: Q01DX009 (ip), vehicle: saline); 113 % of control (endpoint: mean survival time, dose: 1.5 mg/kg/injection, schedule: Q01DX009 (ip), vehicle: saline). In addition, the T/C by setting is: (endpoint: mean survival time, dose: 3.0 mg/kg/injection, schedule: Q01DX009 (ip), vehicle: saline) 107 % of control; (endpoint: mean survival time, dose: 3.13 mg/kg/injection, schedule: Q01DX009 (ip), vehicle: saline with Tween-80) 98 % of control; (endpoint: mean survival time, dose: 31.25 micrograms/kg/injection, schedule: Q01DX009 (ip), vehicle: saline) 103 % of control; (endpoint: mean survival time, dose: 62.5 micrograms/kg/injection, schedule: Q01DX009 (ip), vehicle: saline) 115 % of control; (endpoint: mean survival time, dose: 125.0 micrograms/kg/injection, schedule: Q01DX009 (ip), vehicle: saline) 111 % of control; (endpoint: mean survival time, dose: 156.25 micrograms/kg/injection, schedule: Q01DX009 (ip), vehicle: saline) 119 % of control. For the same compound, the T/C reads like this: (endpoint: mean survival time, dose: 250.0 micrograms/kg/injection, schedule: Q01DX009 (ip), vehicle: saline) 115 % of control; (endpoint: mean survival time, dose: 500.0 micrograms/kg/injection, schedule: Q01DX009 (ip), vehicle: saline) 115 % of control; (endpoint: mean survival time, dose: 625.0 micrograms/kg/injection, schedule: Q01DX009 (ip), vehicle: saline) 104 % of control; (endpoint: mean survival time, dose: 1000.0 micrograms/kg/injection, schedule: Q01DX009 (ip), vehicle: saline) 105 % of control; (endpoint: mean survival time, dose: 1250.0 micrograms/kg/injection, schedule: Q01DX009 (ip), vehicle: saline) 120 % of control; (endpoint: mean survival time, dose: 2500.0 micrograms/kg/injection, schedule: Q01DX009 (ip), vehicle: saline) 95 % of control. For the same compound, the T/C reads like this: (endpoint: median survival time, dose: 3.13 mg/kg/injection, schedule: Q01DX001 (ip), vehicle: saline with Tween-80) 111 % of control; (endpoint: median survival time, dose: 6.25 mg/kg/injection, schedule: Q01DX001 (ip), vehicle: saline with Tween-80) 111 % of control; (endpoint: median survival time, dose: 12.5 mg/kg/injection, schedule: Q01DX001 (ip), vehicle: saline with Tween-80) 122 % of control; (endpoint: median survival time, dose: 25.0 mg/kg/injection, schedule: Q01DX001 (ip), vehicle: saline with Tween-80) 111 % of control.
Consider `O=S1Cc2ccccc2C1`, for which the T/C under setting [1] is 98 % of control.
As for `COc1cc(OC)c(NC(=O)OCCOc2ccc([N+](=O)[O-])cc2)cc1Cl`, the T/C under setting [7] is 90 % of control, the T/C under setting [8] is 86 % of control and the T/C under setting [9] is 97 % of control.
Regarding `CC(=O)c1ccc2c3ccccc3n(C)c2c1`, the T/C is 93 % of control (endpoint: mean survival time, dose: 50.0 mg/kg/injection, schedule: Q01DX009 (ip), vehicle: Klucel (hydroxypropylcellulose) (HPC)); 93 % of control (endpoint: mean survival time, dose: 100.0 mg/kg/injection, schedule: Q01DX009 (ip), vehicle: Klucel (hydroxypropylcellulose) (HPC)); 93 % of control (endpoint: mean survival time, dose: 200.0 mg/kg/injection, schedule: Q01DX009 (ip), vehicle: Klucel (hydroxypropylcellulose) (HPC)).
As to `COC(=O)c1cccn1C(=O)c1cc(OC)c(OC)cc1[N+](=O)[O-]`, the T/C (endpoint: mean survival time, dose: 50.0 mg/kg/injection, schedule: Q04DX002 (ip), vehicle: saline with Tween-80) was 96 % of control; the T/C under setting [11] was 92 % of control and 93 % of control; the T/C under setting [12] was 96 % of control; the T/C under setting [13] is 89 % of control.
